PubChem BioAssay AID248 (DTP/NCI, 2004)
Where “and” joins values, the source holds several entries; their conditions need not be identical. Equal values may be shown once. Toxic doses and inconclusive results are not listed.

System: L1210 leukemia ip in BDF1 mice, survival T/C
Test: NCI In Vivo Anticancer Drug Screen. Data for tumor model L1210 Leukemia (intraperitoneal) in B6D2F1 (BDF1) mice
Conditions: endpoint: mean survival time, higher = longer survival
Outline: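 Value reflects the ratio of survival in compound-treated mice to survival in vehicle-treated controls, with both groups carrying the same transplanted tumor.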

[1] = dose: 100.0 mg/kg/injection, schedule: Q01DX001 (ip), vehicle: saline with Tween-80
[2] = dose: 100.0 mg/kg/injection, schedule: Q04DX003 (ip), vehicle: Klucel (hydroxypropylcellulose) (HPC)
[3] = dose: 200.0 mg/kg/injection, schedule: Q01DX001 (ip), vehicle: saline with Tween-80
[4] = dose: 200.0 mg/kg/injection, schedule: Q04DX003 (ip), vehicle: Klucel (hydroxypropylcellulose) (HPC)
[5] = dose: 400.0 mg/kg/injection, schedule: Q01DX001 (ip), vehicle: saline with Tween-80
[6] = dose: 400.0 mg/kg/injection, schedule: Q04DX003 (ip), vehicle: Klucel (hydroxypropylcellulose) (HPC)
[7] = dose: 100.0 mg/kg/injection, schedule: Q04DX003 (ip), vehicle: saline
[8] = dose: 200.0 mg/kg/injection, schedule: Q04DX003 (ip), vehicle: saline
[9] = dose: 400.0 mg/kg/injection, schedule: Q04DX003 (ip), vehicle: saline
[10] = dose: 100.0 mg/kg/injection, schedule: Q01DX009 (ip), vehicle: saline with Tween-80
[11] = dose: 200.0 mg/kg/injection, schedule: Q01DX009 (ip), vehicle: saline with Tween-80
[12] = dose: 400.0 mg/kg/injection, schedule: Q01DX009 (ip), vehicle: saline with Tween-80
[13] = dose: 200.0 mg/kg/injection, schedule: Q04DX003 (ip), vehicle: saline with Tween-80
[14] = dose: 100.0 mg/kg/injection, schedule: Q01DX001 (ip), vehicle: Klucel (hydroxypropylcellulose) (HPC)
[15] = dose: 200.0 mg/kg/injection, schedule: Q01DX001 (ip), vehicle: Klucel (hydroxypropylcellulose) (HPC)
[16] = dose: 100.0 mg/kg/injection, schedule: Q01DX001 (ip), vehicle: saline
[17] = dose: 200.0 mg/kg/injection, schedule: Q01DX001 (ip), vehicle: saline

Compound: c1ccc(-c2cn3ccccc3n2)cc1
- T/C [1]: 94 % of control
- T/C [2]: 96 % of control
- T/C [3]: 92 % of control
- T/C [4]: 94 % of control
- T/C [5]: 94 % of control
- T/C [6]: 98 % of control

Compound: NC(=O)N(CCO)CCO
- T/C [7]: 110 % of control
- T/C [8]: 96 % of control
- T/C [9]: 104 % of control

Compound: O=C(c1ccccc1[N+](=O)[O-])C(Br)C(Br)c1ccc2c(c1)OCO2 (centres undefined)
- T/C [10]: 97 % of control and 87 % of control
- T/C [11]: 94 % of control and 95 % of control
- T/C [12]: 97 % of control

Compound: COc1cc(C=Nc2cccc(C(F)(F)F)c2)ccc1OC(=O)c1ccccc1
- T/C (dose: 100.0 mg/kg/injection, schedule: Q01DX009 (ip), vehicle: Klucel (hydroxypropylcellulose) (HPC)): 86 % of control
- T/C (dose: 200.0 mg/kg/injection, schedule: Q01DX009 (ip), vehicle: Klucel (hydroxypropylcellulose) (HPC)): 94 % of control
- T/C (dose: 400.0 mg/kg/injection, schedule: Q01DX009 (ip), vehicle: Klucel (hydroxypropylcellulose) (HPC)): 91 % of control

Compound: Nc1ccc(CSc2ccccc2)cc1F
- T/C (dose: 100.0 mg/kg/injection, schedule: Q01DX009 (ip), vehicle: saline + alcohol): 94 % of control
- T/C (dose: 200.0 mg/kg/injection, schedule: Q01DX009 (ip), vehicle: saline + alcohol): 93 % of control
- T/C (dose: 400.0 mg/kg/injection, schedule: Q01DX009 (ip), vehicle: saline + alcohol): 86 % of control

Compound: CN(C)C(=C1C=CC=C1)N(C)C
- T/C (dose: 20.0 mg/kg/injection, schedule: Q04DX003 (ip), vehicle: saline): 101 % of control
- T/C (dose: 40.0 mg/kg/injection, schedule: Q04DX003 (ip), vehicle: saline): 96 % of control
- T/C (dose: 80.0 mg/kg/injection, schedule: Q04DX003 (ip), vehicle: saline): 92 % of control

Compound: O=C1C(=O)C(c2ccccc2)(c2ccccc2)c2cc(-c3ccccc3)c(-c3ccccc3)cc21
- T/C [13]: 93 % of control

Compound: O=C(O)Cn1cnc2cncnc21
- T/C (dose: 100.0 mg/kg/injection, schedule: Q04DX003 (ip), vehicle: saline with Tween-80): 118 % of control
- T/C [13]: 104 % of control
- T/C (dose: 400.0 mg/kg/injection, schedule: Q04DX003 (ip), vehicle: saline with Tween-80): 102 % of control

Compound: CN(C)c1ccc2c(c1)C(=NO)c1cc(N(C)C)ccc1-2
- T/C [2]: 104 % of control
- T/C [4]: 96 % of control
- T/C [6]: 91 % of control

Compound: CN(C)C(=S)SCCOc1ccc(Cl)cc1Cl
- T/C (dose: 25.0 mg/kg/injection, schedule: Q04DX003 (ip), vehicle: Klucel (hydroxypropylcellulose) (HPC)): 95 % of control
- T/C (dose: 50.0 mg/kg/injection, schedule: Q04DX003 (ip), vehicle: Klucel (hydroxypropylcellulose) (HPC)): 98 % of control
- T/C [14]: 96 % of control
- T/C [2]: 101 % of control
- T/C [15]: 100 % of control
- T/C (dose: 400.0 mg/kg/injection, schedule: Q01DX001 (ip), vehicle: Klucel (hydroxypropylcellulose) (HPC)): 104 % of control

Compound: Cn1c(=O)cc(/C=C/c2ccc(-c3ccccc3)cc2)c2ccccc21
- T/C [16]: 103 % of control
- T/C [17]: 93 % of control
- T/C (dose: 400.0 mg/kg/injection, schedule: Q01DX001 (ip), vehicle: saline): 93 % of control

Compound: CCCCSCCN
- T/C (dose: 75.0 mg/kg/injection, schedule: Q01DX009 (ip), vehicle: Klucel (hydroxypropylcellulose) (HPC)): 95 % of control
- T/C (dose: 150.0 mg/kg/injection, schedule: Q01DX009 (ip), vehicle: Klucel (hydroxypropylcellulose) (HPC)): 93 % of control

Compound: O=C=Nc1ccc(CCc2ccc(N=C=O)cc2)cc1
- T/C (dose: 100.0 mg/kg/injection, schedule: Q01DX009 (ip), vehicle: saline): 88 % of control
- T/C [7]: 93 % of control
- T/C (dose: 200.0 mg/kg/injection, schedule: Q01DX009 (ip), vehicle: saline): 87 % of control
- T/C [8]: 102 % of control
- T/C [9]: 106 % of control

Compound: CCOc1ccc2cc(Br)ccc2c1
- T/C (dose: 50.0 mg/kg/injection, schedule: Q01DX001 (ip), vehicle: Klucel (hydroxypropylcellulose) (HPC)): 101 % of control
- T/C [14]: 106 % of control
- T/C [15]: 97 % of control

Compound: CCc1c(CNc2ccc(C(=O)NC(CC(=O)O)C(=O)O)cc2)ccc2nc(N)nc(N)c12 (centres undefined)
- T/C (dose: 0.06 mg/kg/injection, schedule: Q01DX009 (ip), vehicle: saline): 112 % of control
- T/C (dose: 0.25 mg/kg/injection, schedule: Q01DX009 (ip), vehicle: saline): 150 % of control and 184 % of control
- T/C (dose: 0.5 mg/kg/injection, schedule: Q01DX009 (ip), vehicle: saline): 150 % of control
- T/C (dose: 0.5 mg/kg/injection, schedule: Q04DX003 (ip), vehicle: saline): 112 % of control
- T/C (dose: 1.0 mg/kg/injection, schedule: Q01DX009 (ip), vehicle: saline): 90 % of control and 91 % of control
- T/C (dose: 4.0 mg/kg/injection, schedule: Q04DX003 (ip), vehicle: saline): 154 % of control
- T/C (dose: 8.0 mg/kg/injection, schedule: Q04DX003 (ip), vehicle: saline): 113 % of control

Compound: CCCCNC(=S)N/N=C/c1ccccn1
- T/C [2]: 90 % of control
- T/C [4]: 97 % of control

Compound: COc1cc(C(=O)NNC(=O)c2ccc(Cl)c(Cl)c2)cc(OC)c1OC
- T/C [1]: 93 % of control
- T/C [10]: 100 % of control and 89 % of control
- T/C (dose: 100.0 mg/kg/injection, schedule: Q04DX002 (ip), vehicle: saline with Tween-80): 93 % of control and 104 % of control
- T/C [3]: 97 % of control
- T/C [11]: 101 % of control and 86 % of control
- T/C (dose: 200.0 mg/kg/injection, schedule: Q04DX002 (ip), vehicle: saline with Tween-80): 101 % of control and 110 % of control
- T/C [5]: 90 % of control
- T/C [12]: 92 % of control and 97 % of control
- T/C (dose: 400.0 mg/kg/injection, schedule: Q04DX002 (ip), vehicle: saline with Tween-80): 102 % of control and 87 % of control

Compound: Cc1cc(N)c2cc(NC(=O)CCCCCCCCC(=O)Nc3ccc4nc(C)cc(N)c4c3)ccc2n1
- T/C (dose: 8.9 mg/kg/injection, schedule: Q01DX Z (ip), vehicle: saline): 103 % of control and 114 % of control
- T/C (dose: 12.0 mg/kg/injection, schedule: Q01DX Z (ip), vehicle: methylcellulose (MC)): 96 % of control
- T/C (dose: 12.0 mg/kg/injection, schedule: Q01DX Z (ip), vehicle: saline): 121 % of control
- T/C (dose: 13.3 mg/kg/injection, schedule: Q01DX Z (ip), vehicle: carboxymethylcellulose (CMC)): 114 % of control
- T/C (dose: 13.3 mg/kg/injection, schedule: Q01DX Z (ip), vehicle: saline): 111 % of control
- T/C (dose: 18.0 mg/kg/injection, schedule: Q01DX Z (ip), vehicle: methylcellulose (MC)): 100 % of control
- T/C (dose: 18.0 mg/kg/injection, schedule: Q01DX Z (ip), vehicle: saline): 119 % of control
- T/C (dose: 20.0 mg/kg/injection, schedule: Q01DX Z (ip), vehicle: carboxymethylcellulose (CMC)): 112 % of control
- T/C (dose: 20.0 mg/kg/injection, schedule: Q01DX Z (ip), vehicle: saline): 114 % of control and 122 % of control
- T/C (dose: 27.0 mg/kg/injection, schedule: Q01DX Z (ip), vehicle: methylcellulose (MC)): 96 % of control
- T/C (dose: 27.0 mg/kg/injection, schedule: Q01DX Z (ip), vehicle: saline): 123 % of control
- T/C (dose: 30.0 mg/kg/injection, schedule: Q01DX Z (ip), vehicle: carboxymethylcellulose (CMC)): 108 % of control
- T/C (dose: 30.0 mg/kg/injection, schedule: Q01DX Z (ip), vehicle: saline): 115 % of control
- T/C (dose: 40.0 mg/kg/injection, schedule: Q01DX Z (ip), vehicle: methylcellulose (MC)): 96 % of control
- T/C (dose: 40.0 mg/kg/injection, schedule: Q01DX Z (ip), vehicle: saline): 121 % of control
- T/C (dose: 50.0 mg/kg/injection, schedule: Q01DX001 (ip), vehicle: saline): 106 % of control
- T/C (dose: 90.0 mg/kg/injection, schedule: Q01DX Z (ip), vehicle: methylcellulose (MC)): 107 % of control
- T/C (dose: 90.0 mg/kg/injection, schedule: Q01DX Z (ip), vehicle: saline): 113 % of control and 121 % of control and 86 % of control
- T/C [16]: 120 % of control
- T/C (dose: 100.0 mg/kg/injection, schedule: Q04DX003 (ip), vehicle: carboxymethylcellulose (CMC)): 121 % of control
- T/C (dose: 135.0 mg/kg/injection, schedule: Q01DX Z (ip), vehicle: methylcellulose (MC)): 93 % of control
- T/C [17]: 112 % of control
- T/C (dose: 200.0 mg/kg/injection, schedule: Q04DX003 (ip), vehicle: carboxymethylcellulose (CMC)): 117 % of control
- T/C (dose: 400.0 mg/kg/injection, schedule: Q04DX003 (ip), vehicle: carboxymethylcellulose (CMC)): 116 % of control
